Consider 20 compounds from patent US5856503A, “Aminoalkyl-substituted benzo-heterocyclic compounds” (Hoffmann-La Roche Inc., priority 1995, dated 1999).

Converted amounts (≈) assume the structure as drawn. Read-outs that look alike come from different tables or passages of the source. Some results are limits rather than exact numbers.

For one test, the system named is Cryptococcus neoformans. Nature of the test: Antifungal activity in vitro, C. neoformans (microdilution). Type of test: cell-based. To be noted: 48 hours, 27° C., read-out: IC50 for C. neoformans after 48 hours (growth inhibition). On the procedure:
(§1) Antifungal activity in vitro The compounds were tested for antifungal activity against Candida albicans, Cryptococcus neoformans and Aspergillus fumigatus using a microdilution method on microtitre plates (96 wells per plate). Yeast supplemented with 1% glucose and 0.25% di-potassium phosphate was used for the three fungal strains. The fungal cells were inoculated at 3×10^4 CFU (Colony Forming Unit) in […] of medium per well. The medium contained increasing concentrations of test substance. After incubation at 27° C. for 24 or 48 hours the turbidity in each well was measured by a microtitre plate reader. The growth inhibition was calculated in comparison to (without test substance). The IC50 value given in the following Table is the concentration of test substance at which the growth is inhibited by 50%.

The next test concerns Aspergillus fumigatus. Nature of the test: Antifungal activity in vitro, A. fumigatus (microdilution). To be noted: 48 hours, 27° C., read-out: IC50 for A. fumigatus after 48 hours (growth inhibition). Type of test: cell-based. On the procedure: as §1
The next test concerns Candida albicans. Nature of the test: Antifungal activity in vitro, C. albicans (microdilution). Format: cell-based. Particulars: 27° C. On the procedure:
as §1

The target in test [1] is T1, human liver microsomal 2,3-oxidosqualene-lanosterol cyclase (OSC) (Homo sapiens, UniProt P48449).
T1 construct: Liver microsomes from a healthy volunteer were prepared in sodium phosphate buffer (pH 7.4); from tissue; host or cells: liver microsomes from a healthy human volunteer
T1 sequence (P48449 1-732): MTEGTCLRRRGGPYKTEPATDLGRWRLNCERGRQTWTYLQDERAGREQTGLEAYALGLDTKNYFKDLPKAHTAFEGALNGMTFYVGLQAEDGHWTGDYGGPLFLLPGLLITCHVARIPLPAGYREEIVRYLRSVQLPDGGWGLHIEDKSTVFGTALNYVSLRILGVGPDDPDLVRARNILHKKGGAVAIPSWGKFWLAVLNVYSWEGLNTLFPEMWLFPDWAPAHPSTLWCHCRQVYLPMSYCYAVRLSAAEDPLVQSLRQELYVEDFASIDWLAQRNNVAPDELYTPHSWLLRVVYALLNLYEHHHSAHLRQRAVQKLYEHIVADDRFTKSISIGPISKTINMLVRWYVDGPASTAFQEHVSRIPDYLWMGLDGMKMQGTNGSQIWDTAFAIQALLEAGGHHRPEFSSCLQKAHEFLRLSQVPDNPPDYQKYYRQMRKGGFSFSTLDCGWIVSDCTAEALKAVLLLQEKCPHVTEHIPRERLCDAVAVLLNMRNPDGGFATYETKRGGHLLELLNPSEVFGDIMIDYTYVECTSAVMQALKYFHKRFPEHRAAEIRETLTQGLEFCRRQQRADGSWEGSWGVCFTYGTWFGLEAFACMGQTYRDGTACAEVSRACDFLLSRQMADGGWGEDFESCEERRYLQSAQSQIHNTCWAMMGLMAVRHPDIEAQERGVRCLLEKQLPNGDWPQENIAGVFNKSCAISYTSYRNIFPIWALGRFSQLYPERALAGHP
Nature of the test: Inhibition of human liver microsomal 2,3-oxidosqualene-lanosterol cyclase (OSC). Particulars: for inhibition at 0.1 µM: 100 nM test substance, 1 hour at 37° C., against controls; for IC50: pH 7.4, 1 hour at 37° C., read-out: IC50 (OSC, conversion of MOS into lanosterol). Format: biochemical. On the procedure:
Inhibition of human liver microsomal 2,3-oxidosqualene-lanosterol cyclase (OSC)
Liver microsomes from a healthy volunteer were prepared in sodium phosphate buffer (pH 7.4). The OSC activity was measured in the same buffer which also contained 1 mM EDTA and 1 mM dithiothreitol. The microsomes were diluted to 0.8 mg/ml protein in cold phosphate buffer. Dry [^14 C]R,S-monooxidosqualene (MOS; 12.8 μCi/mmol) was diluted to 20 nCi/μl with ethanol and mixed with phosphate buffer-1% BSA (Bovine Serum Albumin). A stock solution of 1 mM test substance in DMSO was diluted to the desired concentration with phosphate buffer-1% BSA. 40 μl of microsomes were mixed with 20 μl of the solution of the test substance and the reaction was subsequently started with 20 μl of the [^14 C]R,S-MOS solution. The final conditions were: 0.4 mg/ml of microsomal proteins and […] of [^14 C]R,S-MOS in phosphate buffer, pH 7.4, containing 0.5% albumin, DMSO <0.1% and ethanol <2%, in a total volume of 80 μl.
After 1 hour at 37° C. the reaction was stopped by the addition of 0.6 ml of 10% KOH-methanol, 0.7 ml of water and 0.1 ml of hexane:ether (1:1, v/v) which contained 25 μg of non-radioactive MOS and 25 μg of lanosterol as the carrier. After shaking 1 ml of hexane:ether (1:1, v/v) was added to each test tube, these were again shaken and then centrifuged. The upper phase was transferred into a glass test tube, the lower phase was again extracted with hexane:ether and combined with the first extract. The entire extract was evaporated to dryness with nitrogen, the residue was suspended in 50 μl of hexane:ether and applied to a silica gel plate. Chromatographic separation was effected in hexane:ether (1:1, v/v) as the eluent. […] After drying radioactive MOS and lanosterol were observed on the silica gel plate. The ratio of MOS to lanosterol was determined from the radioactive bands in order to determine the OSC inhibition.
The test was carried out on the one hand with a constant test substance concentration of 100 nM and the percentage OSC inhibition against controls was calculated. In addition, the test was carried out with different test substance concentrations and subsequently the IC50 value was calculated, i.e. the concentration required to reduce the conversion of MOS into lanosterol to 50% of the control value.

Test [2] can be described thus: Cholesterol lowering in fat-fed hamsters. Type of test: in vivo, Male golden hamsters. Particulars: 200 μmol (about 70-120 mg/kg/day) in diet, 10 days. On the procedure: Cholesterol lowering in fat-fed hamsters
Male golden hamsters kept individually were pre-treated for 7 days with a diet containing grated coconut (40 cal. % fat). The animals were then divided into groups each comprising 5 animals. During the treatment the animals were maintained on the same diet. Each test substance was firstly homogenized in 9 ml of water and subsequently mixed with the milled diet. The controls received only feed converted into a paste with water. The animals were treated for 10 days with a test substance dosage of 200 μmol (about 70-120 mg/kg/day). Blood samples (200 μl) were removed via the jugular vein under light anaesthesia on the last day of the pretreatment and one day after the last administration of test substance. The plasma cholesterol concentration was determined using a colorimetric enzyme method. The plasma lipoproteins were separated by exclusion chromatography (Hennes et al., Science Tools, 36, 1992, 10-12). The total cholesterol was determined in each fraction using a fluorometric enzyme method (Gamble et al., J. Lipid Res., 19, 1978, 1068-1071) in order to calculate the amount of cholesterol in the LDL and HDL fractions. The activity on plasma cholesterol and LDL and HDL cholesterol, expressed in percent of the control animals, for the products of Examples 8a and 12 is reproduced in the following Table: […]

Consider `C=CCN(C)CCCCCCOc1ccc2c(c1)CCNC2c1ccc(Br)cc1` (racemic) [Example 21, (RS)-allyl-[6-[1-(4-bromo-phenyl)-1,2,3,4-tetrahydro-isoquinolin-6-yloxy]-hexyl]-methyl-amine], for which the IC50 was below 0.32 µg/mL in the test on Cryptococcus neoformans; 4.1 µg/mL (≈ 8.96 µM) in the test on Aspergillus fumigatus; below 0.32 µg/mL in the test with Candida albicans (24 hrs., read-out: IC50 for C. albicans after 24 hrs. (growth inhibition)); 1.3 µg/mL (≈ 2.84 µM) in the test on Candida albicans (48 hrs., read-out: IC50 for C. albicans after 48 hrs. (growth inhibition)).
As for `CN(C[C@@H]1C[C@H]1COc1ccc2c(-c3ccc(Br)cc3)nccc2c1)C1CC1` (racemic) [Example 39, (1RS,2RS)-[2-[1-(4-Bromo-phenyl)-isoquinolin-6-yloxymethyl]-cyclopropylmethyl]-cyclopropyl-methyl-amine], in test [1], testing at 0.1 µM gave an inhibition of 83% and the IC50 worked out at 3.6 nM.
For `C=CCN(C)C/C=C/COc1ccc2c(-c3ccc(Br)cc3)nsc2c1` [Example 2a, (E)-allyl-[4-[3-(4-bromo-phenyl)-benzo[d]isothiazol-6-yloxy]-but-2-enyl]-methyl-amine], in test [1], the inhibition at 0.1 µM is 92% and the IC50 was determined as 1.65 nM.
Consider `CSCCN(C)CCCCCCOc1ccc2c(-c3ccc(Br)cc3)nsc2c1` [Example 2b], for which the inhibition at 0.1 µM in test [1] was determined as 32%.
For the compound `C=CCN(C)CCCCCCOc1ccc2c(-c3ccc(Br)cc3)csc2c1` [Example 3, allyl-[6-[3-(4-bromo-phenyl)-benzo[b]thiophen-6-yloxy]-hexyl]methyl-amine], in test [1], 0.1 µM produced 99% inhibition and the half-inhibitory concentration (IC50) was found to be 4 nM.
In the case of `C=CCN(C)C/C=C/COc1ccc2c(CCC=C(C)C)nsc2c1` [Example 6, (E)-allyl-methyl-[4-[3-(4-methyl-pent-3-enyl)-benzo[d]isothiazol-6-yloxy]-but-2-enyl]-amine], at 0.1 µM the inhibition in test [1] was 62%.
The same measure, in the same setting: for `C=CCN(C)C/C=C/COc1ccc2c(-c3ccc(Br)cc3)noc2c1` [Example 12] the value was 61%.
Regarding `C=CCN(C)CCCCCCOc1ccc(-c2noc3cc(Br)ccc23)cc1` [Example 14], the inhibition at 0.1 µM in test [1] came out at 30%.
`C=CCN(C)CCCCCCOc1ccc2c(-c3ccc(Br)cc3)nccc2c1` [Example 23, allyl-[6-[1-(4-bromo-phenyl)-isoquinolin-6-yloxy]-hexyl]-methyl-amine]: in test [2], the “HDL cholesterol (plasma, percent of control animals)” value is reported as -2%; the “LDL cholesterol (plasma, percent of control animals)” value is given as -23%; the “Total cholesterol (plasma, percent of control animals)” value was -15%. The compound further yielded an inhibition at 0.1 µM in test [1] of 99%.
Regarding `C=CCN(C)C/C=C/COc1ccc2c(c1)CCN=C2c1ccc(Br)cc1` [Example 26, (E)-allyl-[4-[1-(4-bromo-phenyl)-3,4-dihydro-isoquinolin-6-yloxy]-but-2-enyl]-methyl-amine], in test [1], at 0.1 µM the inhibition was 95% and the IC50 stood at 2.1 nM.
For `C=CCN(C)C/C=C/COc1ccc2c(c1)CON=C2c1ccc(Br)cc1` [Example 27, (E)-allyl-[4-[4-(4-bromo-phenyl)-1H-benzo[d][1,2]oxazin-7-yloxy]-but-2-enyl]-methyl-amine] the same measures were 96% and 3.7 nM.
For `C=CCN(C)CCCCCCOc1ccc2c(-c3ccc(Br)cc3)nncc2c1` [Example 29, allyl-[6-[1-(4-bromo-phenyl)-phthalazin-6-yloxy]-hexyl]-methyl-amine], 0.1 µM produced 85% inhibition in test [1].
Turning to `C=CCN(C)C/C=C/COc1cc2c(cc1F)c(-c1ccc(Br)cc1)nn2C` [Example 31, (E)-allyl-[4-[3-(4-bromo-phenyl)-5-fluoro-1-methyl-1H-indazol-6-yloxy]-but-2-enyl]-methyl-amine], in test [1], the inhibition at 0.1 µM was determined as 79% and the IC50 is 29 nM.
For `C=CCN(C)CCCCCCOc1ccc2c(CCC=C(C)C)nn(C)c2c1` [Example 32e, allyl-methyl-[6-[1-methyl-3-(4-methyl-pent-3-enyl)-1H-indazol-6-yloxy]-hexyl]amine], in test [1], 0.1 µM produced 75% inhibition.
The same measure, in the same setting: then `C=CCN(C)C/C=C/COc1ccc2c(CCC=C(C)C)nn(C)c2c1` [Example 32h, (E)-allyl-methyl-[4-[1-methyl-3-(4-methyl-pent-3-enyl)-1H-indazol-6-yloxy]-but-2-enyl]-amine], with 54%; and `CN(CCCCCCOc1ccc2c(-c3ccc(Br)cc3)nn(C)c2c1)C1CC1` [Example 32i, [6-[3-(4-bromo-phenyl)-1-methyl-1H-indazol-6-yloxy]-hexyl]-cyclopropyl-methyl-amine], with 55%.
Still for that read-out and setting: then `C=CCN(C)CCCCCCOc1ccc2c(-c3ccc(Br)cc3)n[nH]c2c1` [Example 32k, allyl-[6-[3-(4-bromo-phenyl)-1H-indazol-6-yloxy]-hexyl]-methyl-amine], with 62%.
With `C=CCN(C)CCCCCCOc1ccc2c(-c3ccc(Br)cc3)ncnc2c1` [Example 33, Allyl-[6-[4-(4-bromo-phenyl)-quinazolin-7-yloxy]-hexyl]-methyl-amine], in test [1], the inhibition at 0.1 µM worked out at 94% and the IC50 is 12.3 nM.
The matching figures for `C=CCN(C)CCCCCCOc1ccc2c(c1)OCC=C2c1ccc(Br)cc1` [Example 37, Allyl-[6-[4-(4-bromo-phenyl)-2H-chromen-7-yloxy]-hexyl]-methyl-amine]: 77% and 24 nM.
Regarding `C=CCN(C)CCCCCCOc1ccc2c(-c3ccc(Br)cc3)ccnc2c1` [Example 38, Allyl-[6-[4-(4-bromo-phenyl)-quinolin-7-yloxy]-hexyl]-methyl-amine], in test [1], the inhibition at 0.1 µM stood at 84%.
